One test concerns the target T1, GLP-1 receptor (Homo sapiens, UniProt P43220).
T1 construct: expressed in transfected cells; host or cells: HEK293 cell line
As to the kind of experiment: cAMP experiment, GLP-1 receptor (HEK293 host cell line). The format is cell-based. Conditions: HEK293 host cells.

In a further test the target is T2, GIP receptor (Homo sapiens, UniProt P48546).
T2 construct: expressed in transfected cells; host or cells: CHO cell line
T2 sequence (P48546 22-466): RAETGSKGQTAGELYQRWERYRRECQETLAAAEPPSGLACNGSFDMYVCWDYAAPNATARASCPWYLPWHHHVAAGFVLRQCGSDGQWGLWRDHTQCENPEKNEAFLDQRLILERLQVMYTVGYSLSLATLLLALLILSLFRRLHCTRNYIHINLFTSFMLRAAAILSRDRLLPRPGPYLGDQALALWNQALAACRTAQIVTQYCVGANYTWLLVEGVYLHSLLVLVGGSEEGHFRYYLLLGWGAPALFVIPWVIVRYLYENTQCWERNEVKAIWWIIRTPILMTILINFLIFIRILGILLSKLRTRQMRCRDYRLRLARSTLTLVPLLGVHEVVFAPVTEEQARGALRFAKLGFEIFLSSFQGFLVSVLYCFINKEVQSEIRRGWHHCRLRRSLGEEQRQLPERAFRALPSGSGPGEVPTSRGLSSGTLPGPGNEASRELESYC
In words: cAMP experiment, GIP receptor (CHO host cell line). The following applies: CHO host cells. The format is cell-based.

A word on the EC50: it is the concentration giving half of the maximal effect. Low readings indicate higher potency in that assay, high ones lower potency in that assay.

T1 sequence (P43220 24-463, species assumed): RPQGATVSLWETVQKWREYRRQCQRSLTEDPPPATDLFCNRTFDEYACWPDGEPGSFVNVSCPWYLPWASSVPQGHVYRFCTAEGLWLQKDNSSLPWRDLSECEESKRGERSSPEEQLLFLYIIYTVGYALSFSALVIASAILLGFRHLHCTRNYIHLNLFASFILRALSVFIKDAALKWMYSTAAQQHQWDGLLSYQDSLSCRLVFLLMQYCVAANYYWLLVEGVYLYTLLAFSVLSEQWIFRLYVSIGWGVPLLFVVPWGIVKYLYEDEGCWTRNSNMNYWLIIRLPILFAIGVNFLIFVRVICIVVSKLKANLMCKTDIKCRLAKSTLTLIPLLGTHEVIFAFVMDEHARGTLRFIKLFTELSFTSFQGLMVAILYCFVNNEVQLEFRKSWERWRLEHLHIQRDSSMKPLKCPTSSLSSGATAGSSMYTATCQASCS

Turning to `CC[C@H](C)[C@H](NC(=O)[C@H](CC(C)C)NC(=O)[C@H](Cc1c[nH]c2ccccc12)NC(=O)[C@H](CCC(N)=O)NC(=O)[C@@H](NC(=O)[C@H](Cc1ccccc1)NC(=O)[C@H](C)NC(=O)[C@H](CCCCN)NC(=O)[C@H](CCC(N)=O)NC(=O)[C@H](C)NC(=O)[C@@H](NC(=O)[C@H](CCCCNC(=O)COCCOCCOCCNC(=O)COCCOCCOCCNC(=O)CC[C@H](NC(=O)CCCCCCCCCCCCCCCCCCC(=O)O)C(=O)O)NC(=O)[C@H](CC(=O)O)NC(=O)[C@H](CC(C)C)NC(=O)C(C)(C)NC(=O)[C@@H](NC(=O)[C@H](CO)NC(=O)[C@H](Cc1ccc(O)cc1)NC(=O)[C@H](CC(=O)O)NC(=O)[C@H](CO)NC(=O)[C@@H](NC(=O)[C@H](Cc1ccccc1)NC(=O)[C@@H](NC(=O)CNC(=O)[C@H](CCC(=O)O)NC(=O)C(C)(C)NC(=O)[C@@H](N)Cc1ccc(O)cc1)[C@@H](C)O)[C@@H](C)O)[C@@H](C)CC)[C@@H](C)CC)C(C)C)C(=O)N[C@@H](C)C(=O)NCC(=O)NCC(=O)N1CCC[C@H]1C(=O)N[C@@H](CO)C(=O)N[C@@H](CO)C(=O)NCC(=O)N[C@@H](C)C(=O)N1CCC[C@H]1C(=O)N1CCC[C@H]1C(=O)N1CCC[C@H]1C(=O)N[C@@H](CO)C(N)=O` [BGM125, reference compound], the EC50 at GLP-1 receptor was determined as 0.0692 nM; at GIP receptor it was 0.684 nM.

The record behind these values is patent US12215133B2 (BrightGene Bio-Medical Technology Co., Ltd., priority 2021, dated 2025).
